Laboratory results: ChEMBL document CHEMBL5352423, “Discovery of potent human dihydroorotate dehydrogenase inhibitors based on a benzophenone scaffold” (Eur J Med Chem, 2022)
Converted amounts (≈) assume the structure as drawn. The source made the active and inactive calls. No cut-off for these calls is given here.

Key:
Raji [1] = experiment: Induction of cell cycle arrest in human Raji cells assessed as accumulation cells in S-phase at 0.125 uM for 24 hrs by PI/RNAse staining method (reference value: 42.8%); assay type: functional
SUD4 = experiment: Antiproliferative activity against human SU-DHL-4 cells incubated for 96 hrs by MTT assay; assay type: functional, cell-based; details: SU-DHL-4, 96 h
Raji [2] = experiment: Rescue of cell viability in human Raji cells assessed cell growth inhibition rate at 0.0125 to 0.2 uM in presence of uridine; assay type: functional; details: dose 0.0125-0.2 µM
[3] = Toxicity in BALB/c mouse assessed as lethal dose administered orally for 14 days; details: in vivo, route po, time 14 day
[4] = Toxicity in BALB/c mouse assessed as change in blood MCHC administered at 500 mg/kg, po for 14 days; assay type: organism-based; details: in vivo, 336 h, time 14 day
HCT-116 [5] = experiment: Induction of cell cycle arrest in human HCT-116 cells assessed as accumulation cells in S-phase at 0.125 uM for 24 hrs by PI/RNAse staining method (reference value: 30.2%); assay type: functional
[6] = Cytotoxicity against human HL7702 cells incubated for 96 hrs by MTT assay; assay type: toxicity, cell-based, L02
[7] = Toxicity in BALB/c mouse assessed as histopathological changes in kidney administered at 500 mg/kg, po for 14 days; assay type: organism-based; details: in vivo, 336 h, time 14 day
[8] = Toxicity in BALB/c mouse assessed as change in blood PLT administered at 500 mg/kg, po for 14 days; assay type: organism-based; details: in vivo, 336 h, time 14 day
HCT-116 [9] = experiment: Antitumor activity against human HCT-116 cells xenografted in NOD-SCID mouse assessed as tumor growth inhibition at 30 mg/kg, po administered for 24 days relative to control; assay type: functional; details: HCT-116, 576 h, time 24 day, read-out: TGI
[10] = Toxicity in BALB/c mouse assessed as change in blood neutrophil administered at 500 mg/kg, po for 14 days; assay type: organism-based; details: in vivo, 336 h, time 14 day
[11] = Toxicity in BALB/c mouse assessed as change in blood WBC administered at 500 mg/kg, po for 14 days; assay type: organism-based; details: in vivo, 336 h, time 14 day
[12] = target: Voltage-gated inwardly rectifying potassium channel KCNH2 (Homo sapiens, UniProt Q12809); experiment: Inhibition of human ERG; assay type: toxicity
Raji [13] = experiment: Induction of cell cycle arrest in human Raji cells assessed as accumulation cells in S-phase at 0.0625 uM for 24 hrs by PI/RNAse staining method (reference value: 42.8%); assay type: functional
[14] = Lipophilicity, logP of compound; assay type: physicochemical; details: octanol/water
[15] = Toxicity in NOD-SCID mouse xenografted with human Raji cells assessed as change in body weight at 30 mg/kg, po administered for 24 days; assay type: organism-based; details: in vivo, 576 h, time 24 day
Raji [16] = experiment: Antiproliferative activity against human Raji cells incubated for 96 hrs by MTT assay; assay type: functional, cell-based
Raji [17] = experiment: Antitumor activity against human Raji cells xenografted in NOD-SCID mouse assessed as tumor growth inhibition at 30 mg/kg, po administered for 24 days relative to control; assay type: functional; details: 576 h, time 24 day, read-out: TGI
A-375 = experiment: Antiproliferative activity against human A-375 cells incubated for 96 hrs by MTT assay; assay type: functional, cell-based; details: A-375, 96 h
[18] = Toxicity in BALB/c mouse assessed as change in blood RBC administered at 500 mg/kg, po for 14 days; assay type: organism-based; details: in vivo, 336 h, time 14 day
[19] = Toxicity in NOD-SCID mouse xenografted with human Raji cells assessed as death at 30 mg/kg, po administered for 24 days; assay type: organism-based; details: in vivo, 576 h, time 24 day
Raji [20] = experiment: Antiproliferative activity against human Raji cells assessed as inhibition of cell growth; assay type: functional, cell-based; details: dose 0.0125-0.2 µM
[21] = target: T1, Dihydroorotate dehydrogenase (quinone), mitochondrial (Homo sapiens, UniProt Q02127); experiment: Inhibition of human DHODH at 1 uM for 30 mins relative to control
HCT-116 [22] = experiment: Antiproliferative activity against human HCT-116 cells assessed as inhibition of cell growth at 0.0125 to 0.2 uM; assay type: functional, cell-based; details: dose 0.0125-0.2 µM
[23] = Toxicity in BALB/c mouse assessed as change in blood lymphocytes administered at 500 mg/kg, po for 14 days; assay type: organism-based, Lymphocyte; details: in vivo, 336 h, time 14 day
Kasumi 1 = experiment: Antiproliferative activity against human Kasumi 1 cells incubated for 96 hrs by MTT assay; assay type: functional, cell-based; details: Kasumi 1, 96 h
[24] = Toxicity in BALB/c mouse assessed as change in blood HGB administered at 500 mg/kg, po for 14 days; assay type: organism-based; details: in vivo, 336 h, time 14 day
HCT-116 [25] = experiment: Antiproliferative activity against human HCT-116 cells incubated for 96 hrs by MTT assay; assay type: functional, cell-based; details: HCT-116, 96 h
[26] = Toxicity in BALB/c mouse assessed as change in blood MCH administered at 500 mg/kg, po for 14 days; assay type: organism-based; details: in vivo, 336 h, time 14 day
[27] = Toxicity in BALB/c mouse assessed as histopathological changes in lung administered at 500 mg/kg, po for 14 days; assay type: organism-based; details: in vivo, 336 h, time 14 day
HCT-116 [28] = experiment: Induction of cell cycle arrest in human HCT-116 cells assessed as accumulation cells in S-phase at 0.0625 uM for 24 hrs by PI/RNAse staining method (reference value: 30.2%); assay type: functional
[29] = Aqueous solubility of compound; assay type: physicochemical; details: buffer
[30] = Toxicity in BALB/c mouse assessed as change in blood MPV administered at 500 mg/kg, po for 14 days; assay type: organism-based; details: in vivo, 336 h, time 14 day
Raji [31] = experiment: Induction of cell cycle arrest in human Raji cells assessed as accumulation cells in S-phase at 0.25 uM for 24 hrs by PI/RNAse staining method (reference value: 42.8%); assay type: functional
KG-1 = experiment: Antiproliferative activity against human KG-1 cells incubated for 96 hrs by MTT assay; assay type: functional, cell-based; details: KG-1, 96 h
[32] = Toxicity in BALB/c mouse assessed as change in blood HCT administered at 500 mg/kg, po for 14 days; assay type: organism-based; details: in vivo, 336 h, time 14 day
[33] = Selectivity index ratio of IC50 for human HL7702 cells to IC50 for human Raji cells; assay type: toxicity; details: HL7702 cells and Raji cells, read-out: Ratio IC50
[34] = Cytotoxicity against human HCoEpiC cells incubated for 96 hrs by MTT assay; assay type: toxicity, cell-based
[35] = target: T1, Dihydroorotate dehydrogenase (quinone), mitochondrial; experiment: Inhibition of human DHODH at 100 nM for 30 mins relative to control
[36] = Toxicity in BALB/c mouse assessed as decrease in alkaline phosphatase administered at 500 mg/kg, po for 14 days; assay type: organism-based; details: in vivo, 336 h, time 14 day
[37] = Cytotoxicity against human NCM460 cells incubated for 96 hrs by MTT assay; assay type: toxicity, cell-based
[38] = Toxicity in BALB/c mouse assessed as histopathological changes in spleen administered at 500 mg/kg, po for 14 days; assay type: organism-based; details: in vivo, 336 h, time 14 day
[39] = Toxicity in BALB/c mouse assessed as histopathological changes in liver administered at 500 mg/kg, po for 14 days; assay type: organism-based; details: in vivo, 336 h, time 14 day
Raji [40] = experiment: Antiproliferative activity against human Raji cells assessed as inhibition of cell growth at 0.2 uM relative to control; assay type: functional
Raji [41] = experiment: Antiproliferative activity against human Raji cells assessed as inhibition of cell growth at 0.025 uM relative to control; assay type: functional
[42] = target: T1, Dihydroorotate dehydrogenase (quinone), mitochondrial; experiment: Inhibition of human DHODH incubated for 30 mins
Raji [43] = experiment: Antiproliferative activity against human Raji cells assessed as inhibition of cell growth at 0.0125 uM relative to control; assay type: functional
[44] = Toxicity in BALB/c mouse assessed as change in blood MCV administered at 500 mg/kg, po for 14 days; assay type: organism-based; details: in vivo, 336 h, time 14 day
U-937 = experiment: Antiproliferative activity against human U-937 cells incubated for 96 hrs by MTT assay; assay type: functional, cell-based; details: U-937, 96 h
Raji [45] = experiment: Antiproliferative activity against human Raji cells assessed as inhibition of cell growth at 0.1 uM relative to control; assay type: functional
HCT-116 [46] = experiment: Induction of cell cycle arrest in human HCT-116 cells assessed as accumulation cells in S-phase at 0.25 uM for 24 hrs by PI/RNAse staining method (reference value: 30.2%); assay type: functional
Raji [47] = experiment: Antiproliferative activity against human Raji cells assessed as inhibition of cell growth at 0.05 uM relative to control; assay type: functional
[48] = Toxicity in BALB/c mouse assessed as change in blood RDW administered at 500 mg/kg, po for 14 days; assay type: organism-based; details: in vivo, 336 h, time 14 day

T1 sequence (Q02127 whole entry): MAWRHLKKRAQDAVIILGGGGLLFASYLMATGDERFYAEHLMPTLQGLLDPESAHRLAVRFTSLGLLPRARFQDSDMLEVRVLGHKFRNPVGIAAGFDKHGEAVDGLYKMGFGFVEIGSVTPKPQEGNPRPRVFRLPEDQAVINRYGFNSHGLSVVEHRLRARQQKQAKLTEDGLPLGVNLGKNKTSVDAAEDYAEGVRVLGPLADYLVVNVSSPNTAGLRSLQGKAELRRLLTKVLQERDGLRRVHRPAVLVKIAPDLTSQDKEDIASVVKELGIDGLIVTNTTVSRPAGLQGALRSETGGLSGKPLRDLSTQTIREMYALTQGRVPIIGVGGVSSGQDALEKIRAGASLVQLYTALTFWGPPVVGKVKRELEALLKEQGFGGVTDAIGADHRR
Sequence of Voltage-gated inwardly rectifying potassium channel KCNH2 (Q12809 whole entry): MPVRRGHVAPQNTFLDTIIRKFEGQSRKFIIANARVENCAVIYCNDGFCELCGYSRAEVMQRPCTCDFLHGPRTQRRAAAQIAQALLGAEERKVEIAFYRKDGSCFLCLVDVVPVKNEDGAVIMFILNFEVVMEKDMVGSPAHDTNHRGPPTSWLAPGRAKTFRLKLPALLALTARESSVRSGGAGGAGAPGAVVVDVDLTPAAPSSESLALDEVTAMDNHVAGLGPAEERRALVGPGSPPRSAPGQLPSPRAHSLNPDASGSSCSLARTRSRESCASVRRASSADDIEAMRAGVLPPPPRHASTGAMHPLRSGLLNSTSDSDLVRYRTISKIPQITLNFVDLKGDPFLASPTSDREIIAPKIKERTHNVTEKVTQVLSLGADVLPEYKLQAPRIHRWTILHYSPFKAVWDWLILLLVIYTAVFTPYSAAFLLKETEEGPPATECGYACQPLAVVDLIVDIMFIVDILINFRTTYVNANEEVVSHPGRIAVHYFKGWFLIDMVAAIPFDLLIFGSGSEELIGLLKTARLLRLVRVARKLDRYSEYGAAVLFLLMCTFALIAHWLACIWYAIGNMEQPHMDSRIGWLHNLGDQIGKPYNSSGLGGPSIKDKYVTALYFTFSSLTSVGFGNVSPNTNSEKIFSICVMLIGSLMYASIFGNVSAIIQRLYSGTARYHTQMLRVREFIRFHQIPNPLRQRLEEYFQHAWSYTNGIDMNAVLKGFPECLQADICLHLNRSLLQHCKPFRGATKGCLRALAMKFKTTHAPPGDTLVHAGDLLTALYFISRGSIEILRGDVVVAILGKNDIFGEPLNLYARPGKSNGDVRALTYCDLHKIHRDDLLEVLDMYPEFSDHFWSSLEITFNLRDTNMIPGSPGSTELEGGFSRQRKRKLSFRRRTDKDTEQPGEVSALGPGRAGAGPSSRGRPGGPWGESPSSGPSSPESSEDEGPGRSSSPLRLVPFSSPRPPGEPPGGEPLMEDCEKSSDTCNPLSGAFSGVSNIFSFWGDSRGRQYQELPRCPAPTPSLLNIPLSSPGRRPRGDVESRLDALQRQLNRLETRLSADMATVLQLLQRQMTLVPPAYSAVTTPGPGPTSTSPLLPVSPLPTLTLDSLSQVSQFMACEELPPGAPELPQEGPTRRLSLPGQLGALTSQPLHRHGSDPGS

What does the source list for C/C(O)=C(\C#N)C(=O)Nc1cc(O[C@@H](C)C(F)(F)F)c(C(=O)c2ccccc2Cl)cc1F?
Activity (Raji [1]): 60.6%; IC50 (SUD4): 750 nM; inhibition (INH) (Raji [2]): <5%; LD50 at 336 h [3]: 500 mg/kg; Activity [4]: Non-Toxic; Activity (HCT-116 [5]): 58.9%; IC50 at 96 h [6]: 1100 nM; Activity [7]: Non-Toxic; Activity [8]: Non-Toxic; inhibition in vivo at 30 mg/kg (HCT-116 [9]): 42.1%; Activity [10]: Non-Toxic; Activity [11]: Non-Toxic; IC50 [12]: > 100000 nM; Activity (Raji [13]): 54.2%; logP [14]: 2.49; Activity [15]: Non-Toxic; IC50 (Raji [16]): 60 nM; inhibition in vivo at 30 mg/kg (Raji [17]): 58.3%; IC50 (A-375): 250 nM; Activity [18]: Non-Toxic; Activity [19]: Non-Toxic; inhibition (Raji [20]): Dose-Dependent Effect; inhibition [21]: 98.4%; Activity (HCT-116 [22]): Active; Activity [23]: Non-Toxic; IC50 (Kasumi 1): 100 nM; Activity [24]: Non-Toxic; IC50 (HCT-116 [25]): 140 nM; Activity [26]: Non-Toxic; Activity [27]: Non-Toxic; Activity (HCT-116 [28]): 44.6%; solubility [29]: 61.7 µg/mL (≈ 131 µM); Activity [30]: Non-Toxic; Activity (Raji [31]): 67.1%; IC50 (KG-1): 430 nM; Activity [32]: Non-Toxic; selectivity ratio [33]: 18.3; IC50 at 96 h [34]: 6800 nM; inhibition [35]: 84.2%; Activity [36]: Non-Toxic; IC50 at 96 h [37]: 14200 nM; Activity [38]: Non-Toxic; Activity [39]: Toxic; inhibition at 0.2 µM (Raji [40]): 60.9%; inhibition at 0.025 µM (Raji [41]): 20.7%; IC50 [42]: 10.9 nM; inhibition at 0.0125 µM (Raji [43]): 17%; Activity [44]: Non-Toxic; IC50 (U-937): 220 nM; inhibition at 0.1 µM (Raji [45]): 52.2%; Activity (HCT-116 [46]): 60.6%; inhibition at 0.05 µM (Raji [47]): 36.8%; Activity [48]: Non-Toxic
